The values below come from US20240293558A1, “KRAS INHIBITOR CONJUGATES” (Erasca, Inc., priority 2021, published 2024).

Broadly, the DC50 is the concentration giving 50% degradation. For orientation: IC50 means the concentration at which inhibition is half-maximal.

The structures appear in SMILES notation. Like-named read-outs stand apart in the source and are kept apart here.

Assay [1] has as its target T1, KRas G12D fused to HiBiT peptide (Homo sapiens, UniProt P01116, G12D).
T1 construct: endogenous in cells; host or cells: AsPC-1 HiBiT knock-in single clone (Cas9 RNP + ssODN)
Description: ASPC-1 HiBit assay to determine G12D degradation. It is filed as cell-based. To be noted: AsPC-1 HiBiT cells, 24-hour incubation; read-out: ASPC-1 HiBit DC50 (C). The essentials: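 Homozygous AsPC-1 clone with N-terminal HiBiT knock-in on endogenous KRas G12D, 24 h compound exposure, top dose 10 μM, 3-fold, 10 points, 1% DMSO. Lytic HiBiT luminescence normalised to DMSO and inhibitor controls gives % degradation; DC50 from 4-parameter fit after hook-effect points removed.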
A general note: HiBiT is a short tag that completes a luciferase, so light tracks the accessible tagged protein.

A further assay has as its target KRAS G12D (Homo sapiens, UniProt P01116, G12D). Briefly: In-vitro RAS-RAF binding assay (RRB), HTRF/FRET. It counts as biochemical. More on the design: Biotinylated KRAS protein amino acids 1-169 (produced at Erasca); made in house. To be noted: read-out: Inhibition of RAS-RAF Binding (in-vitro) KRAS (G12D) IC50. An outline of the steps: (§1)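 Compounds preincubated with terbium-labelled biotinylated KRAS (aa 1-169, 30 nM) before 60 min SOS1-catalysed exchange to GTPgS. Binding of the d2-labelled cRAF RBD (30 nM) is read as FRET at equilibrium in duplicate. Buffer: 50 mM HEPES pH 7.5, 100 mM NaCl, 1 mM MgCl2, 1 mM DTT.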
A general note: Time-resolved FRET reads energy transfer from a long-lived donor to a nearby acceptor.

The next assay has as its target T2, KRAS (WT) (Homo sapiens, UniProt P01116).
T2 construct: Biotinylated KRAS protein amino acids 1-169 (produced at Erasca); made in house
Briefly: In-vitro RAS-RAF binding assay (RRB), HTRF/FRET. To be noted: read-out: Inhibition of RAS-RAF Binding (in-vitro) KRAS (WT) IC50. It counts as biochemical. The essentials:
as §1

Setting [2] is: Table 2, average of multiple runs of each compound.

KRAS G12D, sequence (P01116 1-169 isoform P01116-2 G12D): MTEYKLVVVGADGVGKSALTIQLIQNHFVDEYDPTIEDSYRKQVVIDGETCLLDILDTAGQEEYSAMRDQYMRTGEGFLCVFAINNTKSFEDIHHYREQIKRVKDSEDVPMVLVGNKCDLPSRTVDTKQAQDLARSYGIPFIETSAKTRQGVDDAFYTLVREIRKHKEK
T2 sequence (P01116 1-169 isoform P01116-2): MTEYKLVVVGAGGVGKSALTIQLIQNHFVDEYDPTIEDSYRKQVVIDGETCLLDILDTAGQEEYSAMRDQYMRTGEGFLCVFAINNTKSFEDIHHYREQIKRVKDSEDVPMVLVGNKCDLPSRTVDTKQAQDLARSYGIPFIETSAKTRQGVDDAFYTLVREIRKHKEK
T1 sequence (P01116 1-188 isoform P01116-2 G12D): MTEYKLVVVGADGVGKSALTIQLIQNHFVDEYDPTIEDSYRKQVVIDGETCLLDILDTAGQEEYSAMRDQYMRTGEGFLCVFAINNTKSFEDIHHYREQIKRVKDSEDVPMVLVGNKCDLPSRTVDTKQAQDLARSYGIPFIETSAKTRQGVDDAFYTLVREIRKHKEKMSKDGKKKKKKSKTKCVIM

Take `C[C@H](NC(=O)[C@@H]1C[C@@H](O)CN1C(=O)[C@@H](NC(=O)CCOCCCN1CCC[C@H]1COc1nc(N2CC3CCC(C2)N3)c2cc(C(F)(F)F)c(-c3ccc(F)c4sc(N)c(C#N)c34)c(F)c2n1)C(C)(C)C)c1ccc(-c2c(F)cccc2F)cc1` (single isomer, unassigned) [Example 20]: the DC50 in assay [1] was found to be 22.7 nM. Besides, the concentration for half-maximal inhibition (IC50) on KRAS G12D (setting [2]) is 8.52 nM; at KRAS (WT) (setting [2]) it was 26.9 nM.
Consider `Cc1ncsc1-c1ccc([C@H](C)NC(=O)[C@@H]2C[C@@H](O)CN2C(=O)[C@@H](NC(=O)CCOCCCN2CCCC2COc2nc(N3CC4CCC(C3)N4)c3cc(Cl)c(-c4ccc(F)c5sc(N)c(C#N)c45)c(F)c3n2)C(C)(C)C)cc1` (stereo partly drawn) [Example 8, (2S,4R)-1-[(2S)-2-[3-[3-[2-[[7-(2-amino-3-cyano-7-fluoro-benzothiophen-4-yl)-6-chloro-4-(3,8-diazabicyclo[3.2.1]octan-3-yl)-8-fluoro-quinazolin-2-yl]oxymethyl]pyrrolidin-1-yl]propoxy]propanoylamino]-3,3-dimethyl-butanoyl]-4-hydroxy-N-[(1S)-1-[4-(4-methylthiazol-5-yl)phenyl]ethyl]pyrrolidine-2-carboxamide], for which the DC50 in assay [1] turned out to be 126 nM. Also, the half-inhibitory concentration (IC50) worked out at 11 nM on KRAS G12D (Table 1), 8.18 nM at KRAS G12D (setting [2]), 51 nM on KRAS (WT) (Table 1) and 25.9 nM on KRAS (WT) (setting [2]).
